Source: publication PMC9046208, “Foldamers reveal and validate therapeutic targets associated with toxic α-synuclein self-assembly” (Nature Communications, 2022)

Experiments:
Aβ42 aggregation = Aβ42 aggregation (Homo sapiens, UniProt P05067); experiment: ThT aggregation assay, Aβ42; type: biochemical; details: equimolar ratio
Procedure: The aggregation kinetics of αS was monitored using ThT fluorescence assay (λex = 450 nm and λem = 485 nm). To study the aggregation kinetics of αS, the ThT dye at a final concentration of 50 μM was added to 100 μM αS solution in the aggregation buffer (1 x PBS buffer) with and without various concentrations of SK-129 in a Costar black 96–well plate (Corning Inc., Kennebunk, ME). The small molecules were dissolved in dimethyl sulfoxide (DMSO; final DMSO concentration = 0.5%, v/v). The final volume in each well was 140 μL. The plate was incubated at 37 °C with 16 min shaking (434 rpm) and 44 min without shaking in an Infinite M200PRO plate reader (Tecan, Männedorf, Switzerland) and fluorescence was recorded after every hour. We used two methods to quantify the effect of molecules on the aggregation of αS; either we have reported the t50 (time required to reach 50% fluorescence of ThT), which was extracted by fitting the ThT curve as a sigmoidal fit or the absolute ThT fluorescence intensity was reported. […] In the second method, we determined the final ThT fluorescence intensity for the aggregation of αS/Aβ42(with or without ligands) as an average of three separate experiments. […]
The data were expressed as mean and the error bars report the s.e.m. […]

[1] = test system: HEK293 cells expressing αS-A53T-YFP; experiment: MTT assay, HEK293 cells αS-A53T-YFP, recombinant αS fibers; type: cell-based; parameters: key to MTT read-out (viability of HEK cells): absorbance at 570 nm (dissolved formazan); details: for MTT read-out (viability of HEK cells): 7 μM αS + SK-129 equimolar
Procedure: (§1) The HEK293 cells that stably express αS-A53T-YFP and αS-YFP were grown in DMEM with 10% FBS and 1% pen/strep and cultured in an incubator at 37 °C and 5% CO2(g). A total of 60,000 cells per well in 300 µL media were plated in a µ-slide eight-well plate (Ibidi, Munich, Germany) and incubated for 24 h to adhere to the plate. […] Next, the plate was incubated for 24 h, followed by the addition of 30 µL of 1x PBS buffer containing MTT dye (in 1x PBS buffer, 5 mg/mL) to each well. The plates were wrapped in aluminum foil and incubated for 3 h. After 3 h, all liquid was aspirated carefully without disturbing the formazan crystals. To each well, 300 µL of DMSO was added to dissolve the crystals. Once dissolved, the DMSO solution was transferred to a clear 96-well plate (100 µL/well). The absorbance was read on a 96-well plate reader at 570 nm. The cytotoxicity of the HEK cells was monitored for up to 4 days.
(§2) The seeds were generated by aggregating recombinant αS (100 µM) in the absence and presence of SK-129 at an equimolar ratio under the ThT aggregation kinetic conditions for seven days. In the case of seeds from the brain, we used a PMCA sample (5th cycle) generated from the brain seeds in the absence and presence of SK-129 at an equimolar ratio.

[2] = test system: HEK cells expressing αS-A53T-YFP; experiment: MTT viability of HEK cells treated with PMCA samples / PD fibrils; type: cell-based; details: for Relative cell viability (Supp. Figure 27): HEK cells, PD+SK-129
Procedure: as §1, §2
Supplementary Fig. 27. Effect of SK-129 on the PD fibrils catalyzed aggregation of αS templated by PMCA technique. a, The representative confocal images of HEK cells after treatment with PMCA samples from the PD and control brain. The green color images are due to the intracellularly expressed αSA53T-YFP. The αSA53T-YFP inclusions, αS-pS-129, and DAPI are represented by green, red, and blue colors. The αSA53T-YFP inclusions are indicated by white arrows. b, The αSA53T-YFP inclusions, P62, and DAPI are represented by green, red, and blue colors. The αSA53T-YFP inclusions are indicated by white arrows. c, The statistical analysis of the relative viability of HEK cells treated with the indicated conditions for 24 h determined using the MTT-reduction toxicity assay. The data were expressed as mean and the error bars report the s.e.m.
(n = 4 independent cell viability experiments and each n consisted of 4 technical replicates). The statistical analysis was performed using ANOVA with Tukey’s multiple comparison test. *p<0.05, **p<0.01, ***p<0.001, ****p<0.0001. Source data are provided as a Source Data file.

Aβ42 aggregation, sequence (P05067 672-713 limits assumed): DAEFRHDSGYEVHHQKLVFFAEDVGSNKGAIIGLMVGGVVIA

## COC(=O)c1cc(OCC(=O)O)c2cccc(NC(=O)c3cc(OC(C)C)c4cccc(NC(=O)c5cc(OCC(=O)O)c6cccc(NC(=O)c7cc(OC(C)C)c8cccc([N+](=O)[O-])c8n7)c6n5)c4n3)c2n1 [SK-129]
Aβ42 aggregation
  effect on Aβ aggregation: did not show any noticeable effect
[1]; trial 1
  MTT read-out (viability of HEK cells): 0.806
[1]; trial 2
  MTT read-out (viability of HEK cells): 0.8743
[1]; trial 3
  MTT read-out (viability of HEK cells): 0.8833
[1]; trial 4
  MTT read-out (viability of HEK cells): 0.8674
[1]; trial 5
  MTT read-out (viability of HEK cells): 0.8626
[1]; trial 6
  MTT read-out (viability of HEK cells): 0.8492
[1]; trial 7
  MTT read-out (viability of HEK cells): 0.941
[1]; trial 8
  MTT read-out (viability of HEK cells): 0.878
[1]; trial 9
  MTT read-out (viability of HEK cells): 0.892
[1]; trial 10
  MTT read-out (viability of HEK cells): 0.917
[1]; trial 11
  MTT read-out (viability of HEK cells): 0.805
[1]; trial 12
  MTT read-out (viability of HEK cells): 0.8882
[1]; trial 13
  MTT read-out (viability of HEK cells): 0.8431
[1]; trial 14
  MTT read-out (viability of HEK cells): 0.8823
[1]; trial 15
  MTT read-out (viability of HEK cells): 0.919
[1]; trial 16
  MTT read-out (viability of HEK cells): 0.8589
[1]; αS aggregated with SK-129 equimolar, 7 μM, 24 h, αS alone 68%
  viability of HEK cells: 94%
[2]; trial 1
  Relative cell viability (Supp. Figure 27): 0.879
[2]; trial 2
  Relative cell viability (Supp. Figure 27): 0.798
[2]; trial 3
  Relative cell viability (Supp. Figure 27): 0.821
[2]; trial 4
  Relative cell viability (Supp. Figure 27): 0.823
[2]; trial 5
  Relative cell viability (Supp. Figure 27): 0.659
[2]; trial 6
  Relative cell viability (Supp. Figure 27): 0.702
[2]; trial 7
  Relative cell viability (Supp. Figure 27): 0.735
[2]; trial 8
  Relative cell viability (Supp. Figure 27): 0.834
[2]; trial 9
  Relative cell viability (Supp. Figure 27): 0.865
[2]; trial 10
  Relative cell viability (Supp. Figure 27): 0.808
[2]; trial 11
  Relative cell viability (Supp. Figure 27): 0.853
[2]; trial 12
  Relative cell viability (Supp. Figure 27): 0.884
[2]; trial 13
  Relative cell viability (Supp. Figure 27): 0.902
[2]; trial 14
  Relative cell viability (Supp. Figure 27): 0.783
[2]; trial 15
  Relative cell viability (Supp. Figure 27): 0.732
[2]; trial 16
  Relative cell viability (Supp. Figure 27): 0.693
[2]; PD fibrils+SK-129, 24 h, MTT, PD fibrils alone 50.5 ± 5.4%
  cell viability of HEK cells: 85.6 ± 7.8%
